From patent publication US9050341B2, “Methods of treating drug resistant and other tumors by administering 6,7-dialkoxy quinazoline derivatives” (NATCO PHARMA LIMITED, priority 2009, dated 2015) come the findings set out here.

What all share (assay): KinomeScan kinase profiling
Holding throughout (type): binding

For one assay, the target named is T1, ERK1 (Homo sapiens, UniProt P27361).
T1 construct: host or cells: E. coli host derived from BL21, T7 phage lysate
The procedure, abridged: (§1)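 Kinases were expressed as T7 phage fusions in a BL21-derived E. coli host and the cleared lysates were used. Ligand beads were blocked with biotin and buffer (1% BSA, 0.05% Tween 20, 1 mM DTT). Compounds came from 40× DMSO stocks, and phage in the eluates was titred by qPCR.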

For another assay, the target named is T2, IRAK3 (Homo sapiens, UniProt Q9Y616).
T2 construct: host or cells: T7 phage in E. coli host derived from BL21
The procedure, abridged:
as §1

For a further assay, the target named is T3, CSNK2A1 (Homo sapiens, UniProt P68400).
T3 construct: purchased Ambit Biosciences Corp (KinomeScan); host or cells: T7 phage in E. coli host derived from BL21
The procedure, abridged: as §1

In the next assay the target is T4, PLK4 (Homo sapiens, UniProt O00444).
T4 construct: purchased Ambit Biosciences Corp (KinomeScan); host or cells: E. coli host derived from BL21, infected with T7 phage
In a few lines:
as §1

Another assay addresses T5, MYLK2 (Homo sapiens, UniProt Q9H1R3).
T5 construct: host or cells: T7 phage in E. coli host derived from BL21
The procedure, abridged:
as §1

In the next assay the target is T6, INSRR (Homo sapiens, UniProt P14616).
T6 construct: host or cells: T7 phage in E. coli host derived from BL21
The procedure, abridged: as §1

The next assay has as its target T7, PAK2 (Homo sapiens, UniProt Q13177).
T7 construct: host or cells: E. coli host derived from the BL21 strain, infected with T7 phage
In a few lines:
as §1

Another assay has as its target T8, CAMK1G (Homo sapiens, UniProt Q96NX5).
T8 construct: purchased Ambit Biosciences Corp (KinomeScan); host or cells: E. coli host derived from the BL21 strain, T7 phage
In a few lines:
as §1

The target of another assay is T9, PRKD1 (Homo sapiens, UniProt Q15139).
T9 construct: purchased Ambit Biosciences Corp (KinomeScan); host or cells: E. coli host derived from BL21, infected with T7 phage
In a few lines:
as §1

The next assay deals with T10, FLT3 (N8411) (Homo sapiens, UniProt P36888, N841I).
T10 construct: host or cells: E. coli host derived from BL21, infected with T7 phage
The procedure, abridged: as §1

The target in another assay is T11, CLK3 (Homo sapiens, UniProt P49761).
T11 construct: host or cells: T7 phage in E. coli (BL21-derived)
In a few lines: as §1

The target of a further assay is T12, ABL1 (Homo sapiens, UniProt P00519).
T12 construct: host or cells: E. coli host derived from BL21 (T7 phage lysate)
In a few lines: as §1

In the next assay the target is T13, ULK1 (Homo sapiens, UniProt O75385).
T13 construct: purchased Ambit Biosciences Corp (KinomeScan); host or cells: E. coli host derived from the BL21 strain (T7 phage lysate)
In a few lines:
as §1

A further assay deals with T14, MRCKB (Homo sapiens, UniProt Q9Y5S2).
T14 construct: host or cells: T7 phage in E. coli host derived from BL21
The procedure, abridged:
as §1

A further assay addresses T15, MRCKA (Homo sapiens, UniProt Q5VT25).
T15 construct: host or cells: T7 phage in E. coli host derived from BL21
The procedure, abridged: as §1

The target in a further assay is T16, CSNK2A2 (Homo sapiens, UniProt P19784).
T16 construct: purchased Ambit Biosciences Corp (KinomeScan); host or cells: T7 phage in E. coli host derived from BL21
In a few lines:
as §1

The target in a further assay is T17, MST2 (Homo sapiens, UniProt Q13188).
T17 construct: host or cells: T7 phage in E. coli host derived from BL21
The procedure, abridged: as §1

The next assay deals with T18, FGR (Homo sapiens, UniProt P09769).
T18 construct: host or cells: E. coli host derived from BL21, infected with T7 phage
In a few lines: as §1

The target of a further assay is T19, ZAK (Homo sapiens, UniProt Q9NYL2).
T19 construct: host or cells: E. coli host derived from the BL21 strain, infected with T7 phage
In a few lines:
as §1

For the next assay, the target named is T20, MEK3 (Homo sapiens, UniProt P46734).
T20 construct: host or cells: E. coli derived from BL21, infected with T7 phage
In a few lines: as §1

Another assay addresses T21, DAPK3 (Homo sapiens, UniProt O43293).
T21 construct: purchased Ambit Biosciences Corp (KinomeScan); host or cells: T7 phage in E. coli host derived from BL21
In a few lines:
as §1

A further assay addresses T22, RIPK4 (Homo sapiens, UniProt P57078).
T22 construct: host or cells: E. coli host derived from BL21, T7 phage lysate
In a few lines: as §1

In another assay the target is T23, AMPK-alpha2 (Homo sapiens, UniProt P54646).
T23 construct: host or cells: E. coli host derived from BL21 (T7 phage lysate)
The procedure, abridged:
as §1

Structures are written as SMILES.

T23 sequence (P54646 whole entry): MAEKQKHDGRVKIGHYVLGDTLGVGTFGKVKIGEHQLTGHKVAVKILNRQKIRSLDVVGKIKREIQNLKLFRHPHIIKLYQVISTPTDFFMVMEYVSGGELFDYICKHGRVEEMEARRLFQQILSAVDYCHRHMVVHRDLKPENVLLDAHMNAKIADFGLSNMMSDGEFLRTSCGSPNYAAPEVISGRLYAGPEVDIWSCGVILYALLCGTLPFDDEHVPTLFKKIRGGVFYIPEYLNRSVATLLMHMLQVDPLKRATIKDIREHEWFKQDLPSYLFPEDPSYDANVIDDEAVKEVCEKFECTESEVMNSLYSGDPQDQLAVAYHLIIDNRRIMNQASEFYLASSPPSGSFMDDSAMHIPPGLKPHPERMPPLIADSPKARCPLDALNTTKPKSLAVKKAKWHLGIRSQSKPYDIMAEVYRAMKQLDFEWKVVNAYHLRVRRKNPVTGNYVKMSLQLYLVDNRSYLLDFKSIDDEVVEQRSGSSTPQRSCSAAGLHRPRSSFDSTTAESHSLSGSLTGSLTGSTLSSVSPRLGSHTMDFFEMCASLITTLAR
T2 sequence (Q9Y616 whole entry): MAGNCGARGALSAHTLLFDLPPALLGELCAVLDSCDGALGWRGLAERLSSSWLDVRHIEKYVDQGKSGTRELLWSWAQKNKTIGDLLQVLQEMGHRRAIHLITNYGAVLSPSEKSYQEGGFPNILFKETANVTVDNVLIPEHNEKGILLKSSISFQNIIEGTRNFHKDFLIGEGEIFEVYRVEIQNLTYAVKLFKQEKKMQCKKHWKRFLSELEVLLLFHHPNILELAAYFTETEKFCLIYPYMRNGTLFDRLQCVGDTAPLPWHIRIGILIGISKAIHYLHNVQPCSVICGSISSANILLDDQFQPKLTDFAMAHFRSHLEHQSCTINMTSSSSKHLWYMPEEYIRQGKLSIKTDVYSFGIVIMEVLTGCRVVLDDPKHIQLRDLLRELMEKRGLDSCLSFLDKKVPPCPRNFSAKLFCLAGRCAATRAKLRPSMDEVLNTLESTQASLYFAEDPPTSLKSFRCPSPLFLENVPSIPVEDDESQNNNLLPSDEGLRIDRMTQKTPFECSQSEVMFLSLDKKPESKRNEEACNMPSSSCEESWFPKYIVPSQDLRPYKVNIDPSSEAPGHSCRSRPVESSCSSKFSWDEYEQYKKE
T3 sequence (P68400 whole entry): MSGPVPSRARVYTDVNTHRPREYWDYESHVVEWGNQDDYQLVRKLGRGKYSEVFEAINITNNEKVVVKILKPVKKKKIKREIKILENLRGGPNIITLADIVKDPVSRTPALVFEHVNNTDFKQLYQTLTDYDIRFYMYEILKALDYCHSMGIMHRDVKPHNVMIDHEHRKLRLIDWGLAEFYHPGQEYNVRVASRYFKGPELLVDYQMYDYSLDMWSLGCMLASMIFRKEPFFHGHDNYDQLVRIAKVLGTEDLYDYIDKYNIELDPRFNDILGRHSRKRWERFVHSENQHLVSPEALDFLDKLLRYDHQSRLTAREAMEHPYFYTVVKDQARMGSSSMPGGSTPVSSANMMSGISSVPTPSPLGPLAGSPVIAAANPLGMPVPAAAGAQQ
T12 sequence (P00519 whole entry): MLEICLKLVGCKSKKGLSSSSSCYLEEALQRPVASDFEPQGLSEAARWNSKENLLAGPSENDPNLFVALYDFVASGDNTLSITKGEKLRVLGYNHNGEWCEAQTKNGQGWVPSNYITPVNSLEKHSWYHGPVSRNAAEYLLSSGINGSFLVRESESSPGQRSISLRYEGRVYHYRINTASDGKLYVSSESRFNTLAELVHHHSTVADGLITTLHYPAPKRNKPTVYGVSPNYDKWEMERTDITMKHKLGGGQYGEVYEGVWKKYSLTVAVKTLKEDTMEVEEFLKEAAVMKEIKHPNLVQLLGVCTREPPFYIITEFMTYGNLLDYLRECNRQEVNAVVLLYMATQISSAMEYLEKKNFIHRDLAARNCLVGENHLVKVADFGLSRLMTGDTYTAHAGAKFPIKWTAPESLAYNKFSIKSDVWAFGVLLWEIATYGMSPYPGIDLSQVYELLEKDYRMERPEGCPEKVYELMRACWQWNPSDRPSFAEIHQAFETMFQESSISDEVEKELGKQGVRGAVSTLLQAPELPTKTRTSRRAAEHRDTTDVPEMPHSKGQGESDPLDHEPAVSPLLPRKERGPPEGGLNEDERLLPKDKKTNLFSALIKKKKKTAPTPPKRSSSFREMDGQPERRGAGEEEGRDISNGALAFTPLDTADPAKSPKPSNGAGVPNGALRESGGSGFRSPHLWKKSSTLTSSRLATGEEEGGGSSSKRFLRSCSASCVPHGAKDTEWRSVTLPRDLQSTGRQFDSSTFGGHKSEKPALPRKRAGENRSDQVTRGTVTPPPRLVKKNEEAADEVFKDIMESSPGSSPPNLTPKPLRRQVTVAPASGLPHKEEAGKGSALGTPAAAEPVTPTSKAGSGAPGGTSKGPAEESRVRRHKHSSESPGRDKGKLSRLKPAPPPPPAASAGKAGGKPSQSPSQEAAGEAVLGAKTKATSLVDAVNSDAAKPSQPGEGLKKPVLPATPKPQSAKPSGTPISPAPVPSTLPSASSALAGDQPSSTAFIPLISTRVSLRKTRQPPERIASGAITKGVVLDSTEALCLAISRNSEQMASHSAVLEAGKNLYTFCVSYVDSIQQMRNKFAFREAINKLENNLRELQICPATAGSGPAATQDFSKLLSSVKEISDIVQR
T14 sequence (Q9Y5S2 whole entry): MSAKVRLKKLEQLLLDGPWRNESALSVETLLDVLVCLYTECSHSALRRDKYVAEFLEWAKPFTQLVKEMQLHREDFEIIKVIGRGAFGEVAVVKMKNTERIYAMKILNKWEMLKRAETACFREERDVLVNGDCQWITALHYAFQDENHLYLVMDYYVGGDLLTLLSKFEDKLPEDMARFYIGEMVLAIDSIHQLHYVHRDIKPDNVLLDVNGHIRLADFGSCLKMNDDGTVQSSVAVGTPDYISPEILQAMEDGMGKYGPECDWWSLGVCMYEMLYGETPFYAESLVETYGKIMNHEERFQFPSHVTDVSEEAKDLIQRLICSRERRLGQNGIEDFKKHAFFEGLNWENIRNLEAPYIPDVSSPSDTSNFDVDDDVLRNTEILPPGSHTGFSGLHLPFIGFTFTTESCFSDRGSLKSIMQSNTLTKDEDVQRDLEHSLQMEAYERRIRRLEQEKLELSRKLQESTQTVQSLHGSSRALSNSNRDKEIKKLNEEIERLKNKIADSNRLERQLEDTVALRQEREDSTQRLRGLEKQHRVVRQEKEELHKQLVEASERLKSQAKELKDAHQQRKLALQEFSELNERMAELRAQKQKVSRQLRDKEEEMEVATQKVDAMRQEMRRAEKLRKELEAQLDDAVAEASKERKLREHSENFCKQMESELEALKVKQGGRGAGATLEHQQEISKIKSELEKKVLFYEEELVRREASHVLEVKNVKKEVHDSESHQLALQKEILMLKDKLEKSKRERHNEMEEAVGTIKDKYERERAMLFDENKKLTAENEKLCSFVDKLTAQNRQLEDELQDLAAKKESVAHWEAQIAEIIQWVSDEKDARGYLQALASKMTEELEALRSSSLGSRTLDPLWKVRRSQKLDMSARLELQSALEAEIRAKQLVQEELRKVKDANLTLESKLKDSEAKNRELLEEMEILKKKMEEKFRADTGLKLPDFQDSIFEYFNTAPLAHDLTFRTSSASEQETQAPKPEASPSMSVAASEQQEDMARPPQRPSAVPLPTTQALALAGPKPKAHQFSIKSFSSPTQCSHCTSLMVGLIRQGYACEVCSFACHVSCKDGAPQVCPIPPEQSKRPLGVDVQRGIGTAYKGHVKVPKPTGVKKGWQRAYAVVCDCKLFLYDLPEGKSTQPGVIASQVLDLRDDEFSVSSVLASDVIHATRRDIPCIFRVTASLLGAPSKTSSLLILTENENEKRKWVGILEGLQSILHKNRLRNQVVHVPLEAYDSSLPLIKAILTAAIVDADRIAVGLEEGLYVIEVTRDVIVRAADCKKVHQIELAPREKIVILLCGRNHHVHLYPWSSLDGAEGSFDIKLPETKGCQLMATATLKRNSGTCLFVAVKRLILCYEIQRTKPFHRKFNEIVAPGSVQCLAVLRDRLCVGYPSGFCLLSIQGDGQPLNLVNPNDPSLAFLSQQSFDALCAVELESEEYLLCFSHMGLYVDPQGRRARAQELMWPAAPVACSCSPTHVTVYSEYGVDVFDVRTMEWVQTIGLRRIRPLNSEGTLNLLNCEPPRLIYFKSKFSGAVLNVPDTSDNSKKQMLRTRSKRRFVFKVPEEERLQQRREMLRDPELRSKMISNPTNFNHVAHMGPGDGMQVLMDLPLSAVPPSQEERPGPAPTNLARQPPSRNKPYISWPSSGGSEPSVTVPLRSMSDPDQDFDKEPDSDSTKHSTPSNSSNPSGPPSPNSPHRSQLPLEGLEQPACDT
T1 sequence (P27361 whole entry): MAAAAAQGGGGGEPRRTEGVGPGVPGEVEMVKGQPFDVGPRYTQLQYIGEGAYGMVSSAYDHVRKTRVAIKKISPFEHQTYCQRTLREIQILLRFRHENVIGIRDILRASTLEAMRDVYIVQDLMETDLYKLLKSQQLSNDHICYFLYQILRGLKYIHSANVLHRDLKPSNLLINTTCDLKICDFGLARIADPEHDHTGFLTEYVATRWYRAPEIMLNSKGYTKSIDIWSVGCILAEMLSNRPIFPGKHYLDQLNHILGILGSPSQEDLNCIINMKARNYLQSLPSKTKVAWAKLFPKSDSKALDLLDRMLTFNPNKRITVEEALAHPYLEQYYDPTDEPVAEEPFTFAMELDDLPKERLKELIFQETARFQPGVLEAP

For `C#Cc1cccc(Nc2ncnc3cc(OC)c(OCCCN4CCOCC4)cc23)c1` [NRC-2694, N-(3-ethylnylphenyl)-7-methoxy-6-[3-(4-morpholinyl)propoxy]-4-quinazolinamine], the “% Ctrl @ 10000 nM” value on ERK1 amounted to 98 % Ctrl; at IRAK3, 25 % Ctrl; on CSNK2A1, 56 % Ctrl; at PLK4, 70 % Ctrl; at MYLK2, 4.8 % Ctrl; at INSRR, 79 % Ctrl. Also, the “% Ctrl @ 10000 nM” value is 67 % Ctrl on PAK2; 75 % Ctrl on CAMK1G; 9.6 % Ctrl on PRKD1; 16 % Ctrl on FLT3 (N8411); 45 % Ctrl at CLK3; 67 % Ctrl at ABL1. The “% Ctrl @ 10000 nM” value on ULK1 is recorded as 100 % Ctrl; on MRCKB, 71 % Ctrl; on MRCKA, 81 % Ctrl; at CSNK2A2, 52 % Ctrl; on MST2, 85 % Ctrl; at FGR it was 19 % Ctrl. Further, the “% Ctrl @ 10000 nM” value is 74 % Ctrl on ZAK; 100 % Ctrl on MEK3; 34 % Ctrl at DAPK3; 96 % Ctrl on RIPK4; 61 % Ctrl on AMPK-alpha2.
